The values below come from patent US20250197382A1, “KIF18A INHIBITOR” (WIGEN BIOMEDICINE TECHNOLOGY (SHANGHAI) CO., LTD., priority 2022, published 2025).

The assay has as its target Recombinant human KIF18A (1-467His-tagged) protein (Homo sapiens (Human), UniProt Q8NI77). Put plainly: KIF18A enzyme assay (microtubule-stimulated ATPase activity, ADP-Glo). The following applies: 30 nM KIF18A, ATP 75 μM, read-out: inhibitory activity against KIF18A IC50. In kind it is biochemical. The method, boiled down:
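Baculovirus-expressed human KIF18A (1-467, His-tagged; 30 nM) preincubated 15 min at room temperature with compound (22-point 2-fold series) in pH 7.5 Tris buffer containing 30 μg/mL pig microtubules and 1 μM paclitaxel.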

Recombinant human KIF18A (1-467His-tagged) protein, sequence (Q8NI77 1-467): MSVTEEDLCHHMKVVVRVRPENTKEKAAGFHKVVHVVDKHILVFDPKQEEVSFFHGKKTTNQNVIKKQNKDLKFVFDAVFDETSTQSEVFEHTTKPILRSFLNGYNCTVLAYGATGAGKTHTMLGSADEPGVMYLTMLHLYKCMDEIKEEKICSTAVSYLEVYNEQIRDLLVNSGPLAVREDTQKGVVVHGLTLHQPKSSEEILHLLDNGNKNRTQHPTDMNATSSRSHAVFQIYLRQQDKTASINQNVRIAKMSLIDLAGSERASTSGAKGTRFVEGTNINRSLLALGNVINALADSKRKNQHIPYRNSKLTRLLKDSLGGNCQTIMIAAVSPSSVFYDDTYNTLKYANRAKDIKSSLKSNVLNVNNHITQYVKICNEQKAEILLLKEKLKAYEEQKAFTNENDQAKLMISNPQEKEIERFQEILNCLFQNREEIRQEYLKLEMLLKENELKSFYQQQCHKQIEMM
Recombinant human KIF18A (1-467His-tagged) protein, sequence (P02550 whole entry partner): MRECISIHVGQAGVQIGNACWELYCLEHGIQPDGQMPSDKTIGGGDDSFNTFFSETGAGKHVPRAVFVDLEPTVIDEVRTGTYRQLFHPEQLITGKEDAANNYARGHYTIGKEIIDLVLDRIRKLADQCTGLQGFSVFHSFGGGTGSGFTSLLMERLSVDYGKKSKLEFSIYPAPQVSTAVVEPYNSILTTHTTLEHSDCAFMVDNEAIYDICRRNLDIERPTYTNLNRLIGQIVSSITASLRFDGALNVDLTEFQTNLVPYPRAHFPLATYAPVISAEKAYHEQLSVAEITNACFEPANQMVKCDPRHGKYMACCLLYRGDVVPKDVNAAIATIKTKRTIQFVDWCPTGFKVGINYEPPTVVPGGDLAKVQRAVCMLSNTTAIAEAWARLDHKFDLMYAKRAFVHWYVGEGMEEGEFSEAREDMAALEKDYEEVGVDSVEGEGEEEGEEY
Recombinant human KIF18A (1-467His-tagged) protein, sequence (P02554 whole entry partner): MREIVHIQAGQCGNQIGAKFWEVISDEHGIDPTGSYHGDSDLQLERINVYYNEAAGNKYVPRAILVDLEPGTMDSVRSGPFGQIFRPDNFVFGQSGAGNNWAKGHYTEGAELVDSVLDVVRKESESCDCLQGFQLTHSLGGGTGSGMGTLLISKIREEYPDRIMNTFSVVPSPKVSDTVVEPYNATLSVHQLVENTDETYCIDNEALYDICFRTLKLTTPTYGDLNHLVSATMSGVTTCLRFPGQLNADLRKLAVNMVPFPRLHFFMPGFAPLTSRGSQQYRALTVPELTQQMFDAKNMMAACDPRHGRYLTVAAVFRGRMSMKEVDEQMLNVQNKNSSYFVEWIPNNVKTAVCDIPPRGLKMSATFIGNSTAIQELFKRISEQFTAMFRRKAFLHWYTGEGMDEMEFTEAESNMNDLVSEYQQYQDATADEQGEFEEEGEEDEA

With `C[C@H]1CN(c2cc(NC(=O)c3ccc(S(=O)(=O)NCCO)cc3N3CCC4(CC3)CC4)cc3c2N(C)CC3)CCO1` [Compound 275], the IC50 was no more than 100 nM. In the case of `O=C(Nc1cc2c(c(N3CC(F)(F)C3)c1)OCC2)c1ccc(S(=O)(=O)NCCO)cc1N1CCC2(CC1)CC2` [Compound 20], the IC50 was no more than 100 nM. For `C[C@@H]1CN(c2nc(C(=O)Nc3ccc(NS(=O)(=O)[C@@H](C)CO)cc3N3CCC4(CC3)CC4)cc3ccn(C)c23)CCO1` [Compound 495] the value was no more than 100 nM; for `C[C@H]1CN(c2nc(C(=O)Nc3ccc(NS(=O)(=O)CCO)cc3N3CCC4(CC3)CC4)cc3c2N(C)CC3)CCO1` [Compound 355], no more than 100 nM. For `C[C@H](CO)NS(=O)(=O)c1ccc(C(=O)Nc2cc3ccn(C)c3c(N3CCC(F)(F)CC3)n2)c(N2CCC3(CC2)CC3)c1` [Compound 478] the value was no more than 100 nM; for `O=C(Nc1ccc(NS(=O)(=O)CCO)cc1N1CCC2(CC1)CC2)c1cc2c(c(N3CCC4(CC4)C3)n1)OCC2` [Compound 102], no more than 100 nM. The figure for `CN1CCc2cc(NC(=O)c3ccc(NS(=O)(=O)CCO)cc3N3CCC4(CC3)CC4)cc(N3CCC(F)(F)CC3)c21` [Compound 289] is no more than 100 nM; for `O=C(Nc1ccc(S(=O)(=O)NCCO)cc1N1CCC2(CC1)CC2)c1cc2c(c(N3CCC4(CC4)C3)n1)OCC2` [Compound 118] it is no more than 100 nM; for `O=C(Nc1ccc(S(=O)(=O)NCCO)cc1N1CCC2(CC1)CC2)c1cc2c(c(OC3CCC3)n1)OCC2` [Compound 119] it is no more than 100 nM. Consider `Cn1ccc2cc(NC(=O)c3ccc(NS(=O)(=O)CCO)cc3N3CCC4(CC3)CC4)cc(N3CCC4(CC4)C3)c21` [Compound 390], for which the IC50 is no more than 100 nM. As to `C[C@H](CO)NS(=O)(=O)c1ccc(NC(=O)c2cc(N3CCC(F)(F)CC3)c3occc3c2)c(N2CCC3(CC2)CC3)c1` [Compound 190], the IC50 was no more than 100 nM. As to `C[C@@H]1CN(c2nc(NC(=O)c3ccc(NS(=O)(=O)[C@H](C)CO)cc3N3CCC4(CC3)CC4)cc3c2OCC3)CCO1` [Compound 80], the IC50 is no more than 100 nM. For `C[C@@H]1CN(c2nc(C(=O)Nc3ccc(NS(=O)(=O)[C@@H](C)CO)cc3N3CCC4(CC3)CC4)cc3c2OCC3)CCO1` [Compound 111] the value was no more than 100 nM. The figure for `CN1CCc2cc(C(=O)Nc3ccc(NS(=O)(=O)CCO)cc3N3CCC4(CC3)CC4)cc(N3CCOCC3)c21` [Compound 300] is no more than 100 nM. For `C[C@H]1CN(c2nc(C(=O)Nc3ccc(S(=O)(=O)NCCO)cc3N3CCC4(CC3)CC4)cc3ccn(C)c23)CCO1` [Compound 499] the value was no more than 100 nM; for `CN1CCc2cc(C(=O)Nc3ccc(NS(=O)(=O)CCO)cc3N3CCC4(CC3)CC4)cc(N3CC(F)(F)C3)c21` [Compound 292], no more than 100 nM. Consider `O=C(Nc1cc2c(c(N3CCC(F)(F)CC3)c1)OCCC2)c1ccc(S(=O)(=O)NCCO)cc1N1CCC2(CC1)CC2` [Compound 546], for which the IC50 is no more than 100 nM. For `C[C@@H]1CN(c2cc(NC(=O)c3ccc(NS(=O)(=O)[C@H](C)CO)cc3N3CCC4(CC3)CC4)cc3c2OCC3)CCO1` [Compound 16] the value was no more than 100 nM; for `O=C(Nc1ccc(S(=O)(=O)NCCO)cc1N1CCC2(CC1)CC2)c1cc2ccoc2c(OCCC(F)(F)F)n1` [Compound 245], no more than 100 nM.

Regarding `O=C(Nc1cc2ccoc2c(OCCC(F)(F)F)n1)c1ccc(NS(=O)(=O)CCO)cc1N1CCC2(CC1)CC2` [Compound 197], the IC50 was no more than 100 nM. As for `Cn1ccc2cc(C(=O)Nc3ccc(S(=O)(=O)NCCO)cc3N3CCC4(CC3)CC4)nc(OC3CCC3)c21` [Compound 503], the IC50 was no more than 100 nM. The figure for `CC1(F)CCN(c2cc(NC(=O)c3ccc(NS(=O)(=O)CCO)cc3N3CCC4(CC3)CC4)cc3ccoc23)C1` (stereo not shown) [Compound 136] is no more than 100 nM. The figure for `CN1CCc2cc(C(=O)Nc3ccc(NS(=O)(=O)CCO)cc3C3CCC4(CC3)CC4)nc(N3CCC4(CC4)C3)c21` [Compound 358] is no more than 100 nM; for `C[C@H](CO)S(=O)(=O)Nc1ccc(NC(=O)c2cc3c(c(N4CCC(F)(F)CC4)c2)N(C)CC3)c(N2CCC3(CC2)CC3)c1` [Compound 302] it is no more than 100 nM; for `C[C@@H]1CN(c2cc(NC(=O)c3ccc(NS(=O)(=O)[C@H](C)CO)cc3N3CCC4(CC3)CC4)cc3ccn(C)c23)CCO1` [Compound 400] it is no more than 100 nM. The figure for `CN1CCc2cc(NC(=O)c3ccc(NS(=O)(=O)CCO)cc3N3CCC4(CC3)CC4)nc(N3CC4CC4C3)c21` (stereo not shown) [Compound 330] is no more than 100 nM; for `C[C@H](CO)NS(=O)(=O)c1ccc(NC(=O)c2cc(N3CCO[C@H](C)C3)c3c(ccn3C)c2)c(N2CCC3(CC2)CC3)c1` [Compound 448] it is no more than 100 nM; for `O=C(Nc1cc(N2CCOCC2)c2occc2c1)c1ccc(S(=O)(=O)NCCO)cc1N1CCC2(CC1)CC2` [Compound 156] it is no more than 100 nM.

For the compound `O=C(Nc1cc2c(c(N3CCC(F)(F)CC3)c1)NCCC2)c1ccc(NS(=O)(=O)CCO)cc1N1CCC2(CC1)CC2` [Compound 541], the IC50 is no more than 100 nM. Take `C[C@@H](CO)S(=O)(=O)Nc1ccc(C(=O)Nc2cc3ccoc3c(N3CCC(F)(F)CC3)n2)c(N2CCC3(CC2)CC3)c1` [Compound 205]: the IC50 is no more than 100 nM. For `C[C@@H]1CN(c2cc(C(=O)Nc3ccc(NS(=O)(=O)CCO)cc3N3CCC4(CC3)CC4)cc3c2OCC3)CCO1` [Compound 34] the value was no more than 100 nM; for `C[C@H]1CN(c2nc(C(=O)Nc3ccc(S(=O)(=O)NCCO)cc3N3CCC4(CC3)CC4)cc3c2OCC3)CCO1` [Compound 115], no more than 100 nM; for `Cn1ccc2cc(C(=O)Nc3ccc(NS(=O)(=O)CCO)cc3N3CCC4(CC3)CC4)cc(N3CCC(C)(F)C3)c21` (stereo not shown) [Compound 424], no more than 100 nM. For `CN1CCc2cc(C(=O)Nc3ccc(S(=O)(=O)NCCO)cc3N3CCC4(CC3)CC4)cc(OCCC(F)(F)F)c21` [Compound 309] the value was no more than 100 nM; for `O=C(Nc1cn2ccnc2c(N2CCC(F)(F)CC2)n1)c1ccc(NS(=O)(=O)CCO)cc1N1CCC2(CC1)CC2` [Compound 536], no more than 100 nM; for `O=C(Nc1cc2c(c(N3CCC(F)CC3)n1)OCC2)c1ccc(S(=O)(=O)NCCO)cc1N1CCC2(CC1)CC2` [Compound 89], no more than 100 nM. The figure for `O=C(Nc1cc2c(c(N3CCC(F)(F)CC3)c1)CCCC2)c1ccc(NS(=O)(=O)CCO)cc1N1CCC2(CC1)CC2` [Compound 531] is 100 to 500 nM; for `Cn1ccc2cc(C(=O)Nc3ccc(NS(=O)(=O)CCO)cc3N3CCC4(CC3)CC4)nc(N3CCC(C)(F)C3)c21` (stereo not shown) [Compound 488] it is no more than 100 nM; for `O=C(Nc1ccc(S(=O)(=O)NCCO)cc1N1CCC2(CC1)CC2)c1cc(N2CCC(F)(F)CC2)c2occc2c1` [Compound 177] it is no more than 100 nM. Regarding `O=C(Nc1cc(OC2CCC2)c2occc2c1)c1ccc(NS(=O)(=O)CCO)cc1N1CCC2(CC1)CC2` [Compound 135], the IC50 is no more than 100 nM. For `C[C@H](CO)NS(=O)(=O)c1ccc(NC(=O)c2cc(N3CCC(F)(F)CC3)c3c(ccn3C)c2)c(N2CCC3(CC2)CC3)c1` [Compound 446] the value was no more than 100 nM; for `C[C@H]1CN(c2nc(C(=O)Nc3ccc(S(=O)(=O)NCCO)cc3N3CCC4(CC3)CC4)cc3c2N(C)CC3)CCO1` [Compound 371], no more than 100 nM. As for `Cn1ccc2cc(NC(=O)c3ccc(S(=O)(=O)NCCO)cc3N3CCC4(CC3)CC4)cc(OC3CCC3)c21` [Compound 407], the IC50 is no more than 100 nM. Turning to `Cn1ccc2cc(C(=O)Nc3ccc(NS(=O)(=O)CCO)cc3N3CCC4(CC3)CC4)cc(OC3CCC3)c21` [Compound 423], the IC50 was no more than 100 nM. The figure for `O=C(Nc1cc2ccoc2c(N2CCC(F)CC2)n1)c1ccc(NS(=O)(=O)CCO)cc1N1CCC2(CC1)CC2` [Compound 201] is no more than 100 nM. For `C[C@H](CO)NS(=O)(=O)c1ccc(C(=O)Nc2cc(N3CCO[C@H](C)C3)c3occc3c2)c(N2CCC3(CC2)CC3)c1` [Compound 160] the value was no more than 100 nM. For `C[C@H]1CN(c2nc(NC(=O)c3ccc(S(=O)(=O)NCCO)cc3N3CCC4(CC3)CC4)cc3c2OCC3)CCO1` [Compound 83], the IC50 was no more than 100 nM. The figure for `CN1CCc2cc(NC(=O)c3ccc(NS(=O)(=O)CCO)cc3N3CCC4(CC3)CC4)nc(N3CCC4(CC4)C3)c21` [Compound 326] is no more than 100 nM. On to `Cn1ccc2cc(NC(=O)c3ccc(S(=O)(=O)NCCO)cc3N3CCC4(CC3)CC4)nc(CC(C)(C)CO)c21` [Compound 475], for which the IC50 was no more than 100 nM. For `O=C(Nc1ccc(NS(=O)(=O)CCO)cc1N1CCC2(CC1)CC2)c1cc2c(c(OCCC(F)(F)F)n1)OCC2` [Compound 101] the value was no more than 100 nM; for `Cn1ccc2cc(NC(=O)c3ccc(S(=O)(=O)NCCO)cc3N3CCC4(CC3)CC4)nc(N3CCC(F)CC3)c21` [Compound 473], no more than 100 nM; for `C[C@H](CO)S(=O)(=O)Nc1ccc(C(=O)Nc2cc3ccoc3c(N3CCC(F)(F)CC3)n2)c(N2CCC3(CC2)CC3)c1` [Compound 206], no more than 100 nM. As for `Cn1ccc2cc(NC(=O)c3ccc(S(=O)(=O)NCCO)cc3N3CCC4(CC3)CC4)nc(N3CCC4(CC4)C3)c21` [Compound 470], the IC50 is no more than 100 nM. For `O=C(Nc1ccc(NS(=O)(=O)CCO)cc1N1CCC2(CC1)CC2)c1cc2ccoc2c(N2CCOCC2)n1` [Compound 236] the value was no more than 100 nM; for `O=C(Nc1cc2c(c(N3CC4CC4C3)n1)OCC2)c1ccc(NS(=O)(=O)CCO)cc1N1CCC2(CC1)CC2` (stereo not shown) [Compound 74], no more than 100 nM. For `O=C(Nc1ccc(S(=O)(=O)NCCO)cc1N1CCC2(CC1)CC2)c1cc2ccoc2c(N2CCC(F)(F)CC2)n1` [Compound 241] the value was no more than 100 nM; for `C[C@@H]1CN(c2cc(C(=O)Nc3ccc(S(=O)(=O)NCCO)cc3N3CCC4(CC3)CC4)cc3ccoc23)CCO1` [Compound 178], no more than 100 nM; for `C[C@H](CO)NS(=O)(=O)c1ccc(NC(=O)c2cc(N3CCO[C@H](C)C3)c3occc3c2)c(N2CCC3(CC2)CC3)c1` [Compound 192], no more than 100 nM.
